From US20150105252A1, “SUBSTITUTED PYRAZOLES AS HERBICIDES” (E I DU PONT DE NEMOURS AND COMPANY, priority 2013, published 2015)

Experiments:
crabgrass, large = assay: Test A preemergence; assay type: in vivo, Digitaria sanguinalis; details: 0 to 100 scale
Outline: (§1)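 Ratings express plant response from 0 (no effect) to 100 (complete control), judged visually against untreated controls after approximately 10 days in the greenhouse. Preemergence applications were made as directed soil sprays onto seeded loam–sand mix, and postemergence applications onto 2–10 cm plants at one- to two-leaf stage.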

wheat [1] = assay: Test A preemergence; assay type: in vivo, Triticum aestivum; details: preemergence
Outline: as §1

wheat [2] = assay: Test A postemergence; assay type: in vivo, Triticum aestivum
Outline: as §1

corn = assay: Test C preemergence; assay type: in vivo, Zea mays
Outline: (§2)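 Postemergence values come from plants sprayed at the 1- to 4-leaf stage (2–18 cm) in peat moss–vermiculite medium; preemergence values from seeds treated in a loam–sand blend. Both evaluated visually against controls after 13–15 greenhouse days, scale 0–100.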

nutsedge, yellow = assay: Test C preemergence; assay type: in vivo, Cyperus esculentus; details: for Nutsedge, Yellow plant response rating / Plant response rating, Nutsedge, Yellow: preemergence; for Plant response rating, Nutsedge, Yellow: 62 g ai/ha, scale 0 to 100, 0 = no effect, 100 = complete control
Outline: as §2

waterhemp = assay: Test C preemergence; assay type: in vivo, Amaranthus rudis
Outline: as §2

velvetleaf [3] = assay: Test C preemergence; assay type: in vivo, Abutilon theophrasti
Outline: as §2

blackgrass = assay: Test C postemergence; assay type: in vivo, Alopecurus myosuroides; details: for Blackgrass plant response rating: scale 0 to 100
Outline: as §2

soybean = assay: Test C postemergence; assay type: in vivo, Glycine max; details: for Soybean plant response rating / Plant response rating, Soybean: postemergence; for Soybean plant response rating: 62 g ai/ha, scale 0 to 100
Outline: as §2

barnyardgrass = assay: Test C postemergence; assay type: in vivo, Echinochloa crus-galli; details: for Barnyardgrass plant response rating: scale 0 to 100
Excerpt: Seeds of plant species selected from blackgrass (Alopecurus myosuroides), ryegrass, Italian (Italian ryegrass, Lolium multiflorum), wheat (winter wheat, Triticum aestivum), galium (catchweed bedstraw, Galium aparine), corn (Zea mays), crabgrass, large (large crabgrass, Digitaria sanguinalis), foxtail, giant (giant foxtail, Setaria faberii), johnsongrass (Sorghum halepense), lambsquarters (Chenopodium album), morningglory (Ipomoea coccinea), nutsedge, yellow (yellow nutsedge, Cyperus esculentus), pigweed (redroot pigweed, Amaranthus retroflexus), ragweed (common ragweed, Ambrosia elation), soybean (Glycine max), barnyardgrass (Echinochloa crus-galli), oilseed rape (Brassica napus), waterhemp (common waterhemp, Amaranthus rudis), oat, wild (wild oat, Avena fatua), kochia (Kochia scoparia), Surinam grass (Brachiaria decumbens), foxtail, green (green foxtail, Setaria viridis), goosegrass (Eleusine indica), bromegrass, downy (downy bromegrass, Bromus tectorum), nightshade (eastern black nightshade, Solanum ptycanthum), cocklebur (common cocklebur, Xanthium strumarium), cupgrass, woolly (woolly cupgrass, Eriochloa villosa), bermudagrass (Cynodon dactylon), sunflower, (common oilseed sunflower, Helianthus annuus), Russian thistle (Salsola kali), and velvetleaf (Abutilon theophrasti) were planted into a blend of loam soil and sand and treated preemergence with test chemicals formulated in a non-phytotoxic solvent mixture which included a surfactant.
At the same time, plants selected from these crop and weed species and also chickweed (common chickweed, Stellaria media), canarygrass (littleseed canarygrass, Phalaris minor), and deadnettle (henbit deadnettle, Lamium amplexicaule), were planted in pots containing Redi-Earth® planting medium (Scotts Company, 14111 Scottslawn Road, Marysville, Ohio 43041) comprising spaghnum peat moss, vermiculite, wetting agent and starter nutrients and treated with postemergence applications of test chemicals formulated in the same manner. Plants ranged in height from 2 to 18 cm (1- to 4-leaf stage) for postemergence treatments. Treated plants and controls were maintained in a greenhouse for 13 to 15 days, after which time all species were compared to controls and visually evaluated. Plant response ratings, summarized in Table C, are based on a scale of 0 to 100 where 0 is no effect and 100 is complete control. A dash (-) response means no test result.

oilseed rape = assay: Test C postemergence; assay type: in vivo, Brassica napus; details: for Oilseed Rape plant response rating: scale 0 to 100
Outline: as §2

kochia = assay: Test C postemergence; assay type: in vivo, Kochia scoparia; details: for Kochia plant response rating: scale 0 to 100
Outline: as §2

velvetleaf [4] = assay: Test C postemergence; assay type: in vivo, Abutilon theophrasti; details: for Velvetleaf plant response rating / Plant response rating, Velvetleaf: postemergence; for Velvetleaf plant response rating: 62 g ai/ha, scale 0 to 100
Outline: as §2

[5] = Preemergence, 500 g ai/ha, 0 no effect, 100 complete control
[6] = preemergence, 125 g ai/ha, visual injury, approx. 10 days
[7] = 125 g ai/ha, visual injury, 0 to 100 scale, approx. 10 days
[8] = 500 g ai/ha, visual injury after approx. 10 days, 0 to 100 scale (0 no effect, 100 complete control)
[9] = Postemergence, 500 g ai/ha, visual rating after approx. 10 days, 0 to 100 scale (0 no effect, 100 complete control)
[10] = postemergence, 125 g ai/ha, about 10 days, visual rating on 0 to 100 scale (0 no effect, 100 complete control)
[11] = preemergence, 31 g ai/ha, scale 0 to 100 (0 no effect, 100 complete control), 13 to 15 days
[12] = preemergence, 62 g ai/ha, 13 to 15 days, scale 0 to 100, 0 = no effect, 100 = complete control
[13] = preemergence, 125 g ai/ha, scale 0 to 100, 0 is no effect, 100 is complete control
[14] = 31 g ai/ha, scale 0 to 100 (0 no effect, 100 complete control), 13 to 15 days
[15] = 125 g ai/ha, scale 0 to 100, 0 is no effect, 100 is complete control
[16] = Postemergence, 31 g ai/ha, visually evaluated after 13 to 15 days
[17] = postemergence, 250 g ai/ha, scale 0 to 100 (0 no effect, 100 complete control)
[18] = postemergence, 125 g ai/ha, scale 0 to 100, 0 no effect, 100 complete control
[19] = 250 g ai/ha, scale 0 to 100 (0 no effect, 100 complete control)
[20] = 125 g ai/ha, scale 0 to 100, 0 no effect, 100 complete control
[21] = Preemergence, 16 g ai/ha, scale 0 to 100

CCc1cc(C(=O)NC2CC2)nn1Cc1ccnc(C(F)(F)F)c1 [Compound 76]
Crabgrass, Large plant response rating (crabgrass, large; [5]): 100
Crabgrass, Large plant response rating (crabgrass, large; [6]): 90
Wheat plant response rating (wheat [1]; [7]): 30
Wheat plant response rating (wheat [1]; [8]): 90
Wheat plant response rating (wheat [2]; [9]): 90
Wheat plant response rating (wheat [2]; [10]): 80
Plant response rating (scale of 0 to 100), Corn (corn; Preemergence, 250 g ai/ha): 100
Corn plant response rating (corn; [11]): 40
Plant response rating, Corn (corn; [12]): 80
Corn plant response rating (corn; [13]): 100
Plant response rating (scale of 0 to 100), Nutsedge, Yellow (nutsedge, yellow; Preemergence, 250 g ai/ha): 98
Nutsedge, Yellow plant response rating (nutsedge, yellow; [14]): 40
Plant response rating, Nutsedge, Yellow (nutsedge, yellow; 13 to 15 days): 70
Nutsedge, Yellow plant response rating (nutsedge, yellow; [15]): 90
Plant response rating (scale of 0 to 100), Waterhemp (waterhemp; Preemergence, 250 g ai/ha): 100
Waterhemp plant response rating (waterhemp; [11]): 98
Plant response rating, Waterhemp (waterhemp; [12]): 100
Waterhemp plant response rating (waterhemp; [13]): 100
Plant response rating (scale of 0 to 100), Velvetleaf (velvetleaf [3]; Preemergence, 250 g ai/ha): 100
Velvetleaf plant response rating (velvetleaf [3]; [11]): 75
Plant response rating, Velvetleaf (velvetleaf [3]; [12]): 85
Velvetleaf plant response rating (velvetleaf [3]; [13]): 100
Plant response rating (scale of 0 to 100 where 0 is no effect and 100 is complete control), Blackgrass (blackgrass; [16]): 5
Blackgrass plant response rating (blackgrass; postemergence, 62 g ai/ha): 5
Plant response rating, Blackgrass (blackgrass; [17]): 10
Plant response rating, Blackgrass (blackgrass; [18]): 5
Plant response rating (scale of 0 to 100 where 0 is no effect and 100 is complete control), Soybean (soybean; [16]): 65
Soybean plant response rating (soybean): 75
Plant response rating, Soybean (soybean; [19]): 98
Plant response rating, Soybean (soybean; [20]): 95
Plant response rating (scale of 0 to 100 where 0 is no effect and 100 is complete control), Barnyardgrass (barnyardgrass; [16]): 5
Barnyardgrass plant response rating (barnyardgrass; postemergence, 62 g ai/ha): 5
Plant response rating, Barnyardgrass (barnyardgrass; [17]): 60
Plant response rating, Barnyardgrass (barnyardgrass; [18]): 15
Plant response rating (scale of 0 to 100 where 0 is no effect and 100 is complete control), Oilseed Rape (oilseed rape; [16]): 30
Oilseed Rape plant response rating (oilseed rape; postemergence, 62 g ai/ha): 35
Plant response rating, Oilseed Rape (oilseed rape; [17]): 60
Plant response rating, Oilseed Rape (oilseed rape; [18]): 55
Plant response rating (scale of 0 to 100 where 0 is no effect and 100 is complete control), Kochia (kochia; [16]): 75
Kochia plant response rating (kochia; postemergence, 62 g ai/ha): 90
Plant response rating, Kochia (kochia; [17]): 90
Plant response rating, Kochia (kochia; [18]): 90
Plant response rating (scale of 0 to 100 where 0 is no effect and 100 is complete control), Velvetleaf (velvetleaf [4]; [16]): 15
Velvetleaf plant response rating (velvetleaf [4]): 40
Plant response rating, Velvetleaf (velvetleaf [4]; [19]): 80
Plant response rating, Velvetleaf (velvetleaf [4]; [20]): 60

CCCNC(=O)c1cc(CC)n(Cc2ccnc(C(F)(F)F)c2)n1 [Compound 75]
Crabgrass, Large plant response rating (crabgrass, large; [5]): 100
Crabgrass, Large plant response rating (crabgrass, large; [6]): 100
Wheat plant response rating (wheat [1]; [7]): 80
Wheat plant response rating (wheat [1]; [8]): 100
Wheat plant response rating (wheat [2]; [9]): 90
Wheat plant response rating (wheat [2]; [10]): 80
Plant response rating, Corn (corn; [21]): 10
Corn plant response rating (corn; [11]): 60
Plant response rating, Corn (corn; [12]): 98
Corn plant response rating (corn; [13]): 100
Nutsedge, Yellow plant response rating (nutsedge, yellow; [14]): 55
Plant response rating, Nutsedge, Yellow (nutsedge, yellow; 13 to 15 days): 75
Nutsedge, Yellow plant response rating (nutsedge, yellow; [15]): 85
Plant response rating, Waterhemp (waterhemp; [21]): 80
Waterhemp plant response rating (waterhemp; [11]): 100
Plant response rating, Waterhemp (waterhemp; [12]): 100
Waterhemp plant response rating (waterhemp; [13]): 100
Plant response rating, Velvetleaf (velvetleaf [3]; [21]): 60
Velvetleaf plant response rating (velvetleaf [3]; [11]): 75
Plant response rating, Velvetleaf (velvetleaf [3]; [12]): 100
Velvetleaf plant response rating (velvetleaf [3]; [13]): 100
Plant response rating (scale of 0 to 100), Blackgrass (blackgrass; Postemergence, 16 g ai/ha): 5
Blackgrass plant response rating (blackgrass; Postemergence, 31 g ai/ha): 5
Blackgrass plant response rating (blackgrass; postemergence, 62 g ai/ha): 10
Plant response rating, Blackgrass (blackgrass; [18]): 15
Plant response rating (scale of 0 to 100), Soybean (soybean; Postemergence, 16 g ai/ha): 40
Soybean plant response rating (soybean): 75
Plant response rating, Soybean (soybean; [20]): 90
Plant response rating (scale of 0 to 100), Barnyardgrass (barnyardgrass; Postemergence, 16 g ai/ha): 5
Barnyardgrass plant response rating (barnyardgrass; Postemergence, 31 g ai/ha): 10
Barnyardgrass plant response rating (barnyardgrass; postemergence, 62 g ai/ha): 10
Plant response rating, Barnyardgrass (barnyardgrass; [18]): 35
Plant response rating (scale of 0 to 100), Oilseed Rape (oilseed rape; Postemergence, 16 g ai/ha): 20
Oilseed Rape plant response rating (oilseed rape; Postemergence, 31 g ai/ha): 50
Oilseed Rape plant response rating (oilseed rape; postemergence, 62 g ai/ha): 50
Plant response rating, Oilseed Rape (oilseed rape; [18]): 60
Plant response rating (scale of 0 to 100), Kochia (kochia; Postemergence, 16 g ai/ha): 30
Kochia plant response rating (kochia; Postemergence, 31 g ai/ha): 60
Kochia plant response rating (kochia; postemergence, 62 g ai/ha): 60
Plant response rating, Kochia (kochia; [18]): 90
Plant response rating (scale of 0 to 100), Velvetleaf (velvetleaf [4]; Postemergence, 16 g ai/ha): 25
Velvetleaf plant response rating (velvetleaf [4]): 35
Plant response rating, Velvetleaf (velvetleaf [4]; [20]): 40
